Test results reported in patent US11865195B2, “Evaluation of presence of and vulnerability to atrial fibrillation and other indications using matrix metalloproteinase-based imaging” (Lantheus Medical Imaging, Inc., priority 2011, dated 2024).
Read-outs that look alike come from different tables or passages of the source. One block for each molecule: values may come before it.

Tests used:
[1] = test system: MMPs; details: cited from earlier work; for selectivity for MMP-2 and MMP-9 over the other MMPs: derivatized alanine hydroxamates
[2] = molecular target: T1, activated MMP-2 (Homo sapiens, UniProt P08253); test: In-vitro MMP inhibition assay (fluorogenic peptide substrate); assay type: biochemical; details: 1 h at 27° C., triplicate
T1 construct: purchased R&D Systems
T1 sequence (P08253 110-660): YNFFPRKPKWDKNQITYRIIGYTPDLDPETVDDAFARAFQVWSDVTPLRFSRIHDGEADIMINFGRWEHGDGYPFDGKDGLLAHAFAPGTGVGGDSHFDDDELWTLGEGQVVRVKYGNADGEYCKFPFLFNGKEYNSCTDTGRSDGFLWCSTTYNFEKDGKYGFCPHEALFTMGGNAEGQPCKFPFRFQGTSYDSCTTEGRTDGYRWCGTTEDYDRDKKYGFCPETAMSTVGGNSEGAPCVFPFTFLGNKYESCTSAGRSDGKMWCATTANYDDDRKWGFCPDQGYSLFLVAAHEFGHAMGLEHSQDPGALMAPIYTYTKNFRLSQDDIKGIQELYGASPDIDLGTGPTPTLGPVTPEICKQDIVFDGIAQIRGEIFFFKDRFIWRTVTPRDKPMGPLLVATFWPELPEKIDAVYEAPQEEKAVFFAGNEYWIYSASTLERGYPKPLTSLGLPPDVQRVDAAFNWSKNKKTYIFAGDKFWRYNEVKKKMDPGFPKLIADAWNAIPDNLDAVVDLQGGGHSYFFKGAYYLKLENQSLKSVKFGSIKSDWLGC
Procedure: (§1) Individual inhibitors were dissolved in TCN buffer (50 mM Tris-HCl, 10 mM CaCl2, 150 mM […], 0.05% Brij 35 at pH 7.5) at appropriate dilutions then added to the wells of a microtiter plate (10 μL/well) in triplicate. Each well of test agent (and appropriate control wells) was then treated with activated MMP-2 or 9 (10 μL of a 40 nM solution in 50 mM Hepes, 10 mM CaCl2), 1% Brij 35 at pH 7.5; R&D Systems) followed by 30 μL TCN buffer and 150 μL the fluorogenic peptide substrate (Mca-PLGL-Dpa-AR-NH2; R&D Systems). The resulting mixtures were incubated 1 h at 27° C. then analyzed using a FL600 fluorescent plate reader (excitation=310/20; emission=420/50; optics=bottom; sensitivity=225) and KC4 Software.

[3] = molecular target: T2, activated MMP-9 (Homo sapiens, UniProt P14780); test: as above; assay type: biochemical; details: 1 h at 27° C., triplicate
T2 construct: purchased R&D Systems
Procedure: as §1

[4] = Tissue biodistribution in the Oncomouse; assay type: in vivo, mice; details: tail vein injection, 1 h post-injection, mean±SEM
Procedure: Oncomice®, obtained through an in-house breeding program, were anesthetized intramuscularly with 0.1 mL of ketamine/acepromazine (1.8 mL saline, 1.0 mL ketamine, and 0.2 mL acepromazine) prior to dosing and tissue sampling. Individual mice were then injected via the tail vein with an imaging agent of the present invention (0.5-2.0 mCi/kg in 0.1 mL). Mice were euthanized and biodistribution performed at 1 h post-injection. Selected tissues were removed, weighed, and counted on a gamma counter. Results are expressed as the percentage of injected dose per gram tissue (mean±SEM; Table 3).

[5] = test system: activated MMPs; test: MicroSPECT/CT imaging of aortic arch MMP activation in ApoE-/- mice under anti-lipid therapies; assay type: in vivo; details: 4 weeks of therapy; HFD group 4.99±0.27
Procedure: Methods: ApoE^−/− mice were fed a high fat diet (HFD) for 2 months to induce atherosclerosis. After two months, the mice were randomly assigned to one of 4 groups: HFD, HFD plus simvastatin (Sim), HFD plus fenofibrate (Fen) and high fat withdrawal (HFW). MicroSPECT/CT imaging using ^99mTc-RP805, a tracer with specificity for activated MMPs was performed after one week and 4 weeks.

T2 sequence (P14780 107-707 limits assumed): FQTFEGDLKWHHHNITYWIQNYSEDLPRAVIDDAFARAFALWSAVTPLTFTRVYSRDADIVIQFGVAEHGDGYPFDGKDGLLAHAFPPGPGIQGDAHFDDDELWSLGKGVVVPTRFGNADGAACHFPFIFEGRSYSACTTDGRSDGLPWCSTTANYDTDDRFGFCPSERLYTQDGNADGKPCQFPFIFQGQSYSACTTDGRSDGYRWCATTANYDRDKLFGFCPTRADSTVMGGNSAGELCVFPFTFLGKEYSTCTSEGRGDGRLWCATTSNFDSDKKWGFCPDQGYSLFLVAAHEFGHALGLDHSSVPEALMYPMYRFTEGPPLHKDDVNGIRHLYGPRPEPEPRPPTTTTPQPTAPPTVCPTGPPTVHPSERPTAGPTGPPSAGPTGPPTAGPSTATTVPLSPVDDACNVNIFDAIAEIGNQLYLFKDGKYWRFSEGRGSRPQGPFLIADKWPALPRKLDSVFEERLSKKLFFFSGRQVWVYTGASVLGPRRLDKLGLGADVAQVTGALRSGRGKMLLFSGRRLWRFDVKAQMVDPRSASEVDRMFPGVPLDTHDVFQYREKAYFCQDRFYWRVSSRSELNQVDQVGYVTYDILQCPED

Compound: CCCCCCCCC[C@H](CC(=O)NO)C(=O)N[C@H](C(=O)NC)C(C)(C)C [1-5]
selectivity for MMP-2 over MMP-1 and MMP-3 ([1]; long alkyl substituent at P1' position): imparts selectivity

Compound: CNC(=O)[C@@H]1Cc2ccc(cc2)OCCC[C@H](C(=O)NO)[C@@H](CC(C)C)C(=O)N1 [1-6]
activity against MMPs ([1]; macrocyclic succinyl hydroxamate): nanomolar activity

Compound: O=C(NO)C1CCCN[C@@H]1C(=O)N1CCC(c2ccccc2)CC1 (stereo partly drawn) [1-8]
inhibition of MMPs ([1]; succinyl hydroxamate with modified P2' and P3' positions): potent inhibition

Compound: COc1ccc(Oc2ccc([C@]3(C)CCN([C@H](C)C(=O)NO)C3=O)cc2)cc1OC [1-11]
selectivity for MMP-2 and MMP-9 over the other MMPs [1]: show selectivity

Compound: C[C@H](C(=O)NO)N1CCNc2cc(OCc3ccccc3)ccc2S1(=O)=O [1-12]
selectivity for MMP-2 and MMP-9 over the other MMPs [1]: show selectivity

Compound: O=C(NO)C1(CS(=O)(=O)c2ccc(Oc3ccc(Cl)cc3)cc2)CCOCC1 [1-13]
selectivity for MMP-2 and MMP-9 over MMP-1 [1]: selectivity

Compound: CCCCCCC[C@H](CC(=O)CS)C(=O)N[C@H](C(=O)NC)C(C)(C)C [1-15]
activity against MMPs ([1]; succinyl thiol): good activity

IC50 [2]: 5.19 nM
IC50 [3]: 3.54 nM
Compound: CC(C)C[C@H]1C(=O)N[C@H](C(=O)NCCCF)Cc2ccc(cc2)OCCC[C@@H]1C(=O)NO [Imaging Agent 1]

IC50 [2]: 31.6 nM
IC50 [3]: 20.2 nM
Imaging agent distribution, blood [4]: 1.07 ± 0.060 % ID/g
Imaging agent distribution, bone [4]: 2.02 ± 0.320 % ID/g
Imaging agent distribution, heart [4]: 0.95 ± 0.065 % ID/g
Imaging agent distribution, kidney [4]: 20.6 ± 3.25 % ID/g
Imaging agent distribution, liver [4]: 13.1 ± 2.17 % ID/g
Imaging agent distribution, lung [4]: 0.97 ± 0.121 % ID/g
Imaging agent distribution, muscle [4]: 0.50 ± 0.073 % ID/g
Imaging agent distribution, spleen [4]: 0.69 ± 0.085 % ID/g
Imaging agent distribution, tumor [4]: 0.95 ± 0.103 % ID/g
Imaging agent distribution, urine [4]: 71.8 % ID/g
Compound: CC(C)C[C@H]1C(=O)N[C@H](C(=O)NCCCCCCF)Cc2ccc(cc2)OCCC[C@@H]1C(=O)NO [Imaging Agent 2]

IC50 [2]: 4.61 nM
IC50 [3]: 2.59 nM
Compound: CC(C)C[C@H]1C(=O)N[C@H](C(=O)NCC(=O)NCCCF)Cc2ccc(cc2)OCCC[C@@H]1C(=O)NO [Imaging Agent 3]

IC50 [2]: 15.4 nM
IC50 [3]: 15.3 nM
Imaging agent distribution, blood [4]: 0.41 ± 0.099 % ID/g
Imaging agent distribution, bone [4]: 1.28 ± 0.200 % ID/g
Imaging agent distribution, heart [4]: 0.36 ± 0.064 % ID/g
Imaging agent distribution, kidney [4]: 14.8 ± 1.79 % ID/g
Imaging agent distribution, liver [4]: 23.6 ± 5.19 % ID/g
Imaging agent distribution, lung [4]: 0.45 ± 0.071 % ID/g
Imaging agent distribution, muscle [4]: 0.17 ± 0.043 % ID/g
Imaging agent distribution, spleen [4]: 0.34 ± 0.057 % ID/g
Imaging agent distribution, tumor [4]: 1.12 ± 0.204 % ID/g
Imaging agent distribution, urine [4]: 7.67 ± 5.00 % ID/g
Compound: CC(C)C[C@H]1C(=O)N[C@H](C(=O)NCC(=O)NCCCCCF)Cc2ccc(cc2)OCCC[C@@H]1C(=O)NO [Imaging Agent 4]

IC50 [2]: 0.58 nM
IC50 [3]: 0.74 nM
Compound: CC(C)C[C@H]1C(=O)N[C@H](C(=O)NCc2ccc(F)cc2)Cc2ccc(cc2)OCCC[C@@H]1C(=O)NO [Imaging Agent 5]

IC50 [2]: 2.74 nM
IC50 [3]: 2.98 nM
Imaging agent distribution, blood [4]: 0.88 ± 0.061 % ID/g
Imaging agent distribution, bone [4]: 2.86 ± 0.124 % ID/g
Imaging agent distribution, heart [4]: 0.69 ± 0.073 % ID/g
Imaging agent distribution, kidney [4]: 6.66 ± 1.46 % ID/g
Imaging agent distribution, liver [4]: 11.3 ± 1.73 % ID/g
Imaging agent distribution, lung [4]: 1.69 ± 0.382 % ID/g
Imaging agent distribution, muscle [4]: 0.44 ± 0.049 % ID/g
Imaging agent distribution, spleen [4]: 0.81 ± 0.021 % ID/g
Imaging agent distribution, tumor [4]: 0.73 ± 0.026 % ID/g
Imaging agent distribution, urine [4]: 7.21 ± 6.71 % ID/g
Compound: CC(C)C[C@H]1C(=O)N[C@H](C(=O)NCc2ccc(OCCCF)cc2)Cc2ccc(cc2)OCCC[C@@H]1C(=O)NO [Imaging Agent 6]

Compound: CC(C)OC(=O)C(C)(C)Oc1ccc(C(=O)c2ccc(Cl)cc2)cc1 [fenofibrate]
99mTc-RP805 uptake in the aortic arch under HFD plus anti-lipid drug [5]: 2.23±0.28 counts per voxel per mCi injected dose

Compound: CCC(C)(C)C(=O)O[C@H]1C[C@@H](C)C=C2C=C[C@H](C)[C@H](CC[C@@H]3C[C@@H](O)CC(=O)O3)[C@H]21 [simvastatin]
99mTc-RP805 uptake in the aortic arch under HFD plus anti-lipid drug [5]: 3.17±0.52 counts per voxel per mCi injected dose
